Laboratory results reported in ChEMBL document CHEMBL3509396, “FDA drug approval package for Aspirin (clinical pharmacology review, Ref:ID 3227827)”.

Tests used:
[1] = (§1) Mean Cmax of acetylsalicylic acid concentration after administration of Genuine Bayer Aspirin Tablet at fasting condition in human; assay type: ADME, organism-based; parameters: dietary status Fasting, dose 325 mg, dosed compound id 2.46814e+06, dosed compound name Acetylsalicylic acid, regimen Single, route oral, sampling time 24 h, study doses 325/650 mg; conditions: plasma, po, 325 mg
[2] = (§2) Mean AUC0-t of acetylsalicylic acid concentration after administration of Genuine Bayer Aspirin Tablet at fasting condition in human; assay type: ADME, organism-based; parameters: dietary status Fasting, dose 325 mg, dosed compound id 2.46814e+06, dosed compound name Acetylsalicylic acid, regimen Single, route oral, sampling time 24 h, study doses 325/650 mg; conditions: plasma, po, 325 mg
[3] = (§3) Mean AUCinfinity of acetylsalicylic acid concentration after administration of Genuine Bayer Aspirin Tablet at fasting condition in human; assay type: ADME, organism-based; parameters: time infinity, dietary status Fasting, dose 325 mg, dosed compound id 2.46814e+06, dosed compound name Acetylsalicylic acid, regimen Single, route oral, sampling time 24 h, study doses 325/650 mg; conditions: plasma, po, 325 mg, read-out: AUCinfinity (converted)
[4] = (§4) Mean terminal elimination half-life of acetylsalicylic acid concentration after administration of Genuine Bayer Aspirin Tablet at fasting condition in human; assay type: ADME, organism-based; parameters: dietary status Fasting, dose 325 mg, dosed compound id 2.46814e+06, dosed compound name Acetylsalicylic acid, regimen Single, route oral, sampling time 24 h, study doses 325/650 mg; conditions: plasma, po, 325 mg
[5] = (§5) Mean Tlag of acetylsalicylic acid concentration after administration of Genuine Bayer Aspirin Tablet at fasting condition in human; assay type: ADME, organism-based, Plasma; parameters: dietary status Fasting, dose 325 mg, dosed compound id 2.46814e+06, dosed compound name Acetylsalicylic acid, regimen Single, route oral, sampling time 24 h, study doses 325/650 mg; conditions: in vivo, po
[6] = (§6) Mean Tmax of acetylsalicylic acid concentration after administration of Genuine Bayer Aspirin Tablet at fasting condition in human; assay type: ADME, organism-based; parameters: dietary status Fasting, dose 325 mg, dosed compound id 2.46814e+06, dosed compound name Acetylsalicylic acid, regimen Single, route oral, sampling time 24 h, study doses 325/650 mg; conditions: plasma, po, 325 mg
[7] = as §1; assay type: ADME, organism-based; parameters: dietary status Fasting, dose 650 mg, dosed compound id 2.46814e+06, dosed compound name Acetylsalicylic acid, regimen Single, route oral, sampling time 24 h, study doses 325/650 mg; conditions: plasma, po, 650 mg
[8] = as §2; assay type: ADME, organism-based; parameters: dietary status Fasting, dose 650 mg, dosed compound id 2.46814e+06, dosed compound name Acetylsalicylic acid, regimen Single, route oral, sampling time 24 h, study doses 325/650 mg; conditions: plasma, po, 650 mg
[9] = as §3; assay type: ADME, organism-based; parameters: time infinity, dietary status Fasting, dose 650 mg, dosed compound id 2.46814e+06, dosed compound name Acetylsalicylic acid, regimen Single, route oral, sampling time 24 h, study doses 325/650 mg; conditions: plasma, po, 650 mg, read-out: AUCinfinity (converted)
[10] = as §4; assay type: ADME, organism-based; parameters: dietary status Fasting, dose 650 mg, dosed compound id 2.46814e+06, dosed compound name Acetylsalicylic acid, regimen Single, route oral, sampling time 24 h, study doses 325/650 mg; conditions: plasma, po, 650 mg
[11] = as §5; assay type: ADME, organism-based, Plasma; parameters: dietary status Fasting, dose 650 mg, dosed compound id 2.46814e+06, dosed compound name Acetylsalicylic acid, regimen Single, route oral, sampling time 24 h, study doses 325/650 mg; conditions: in vivo, po
[12] = as §6; assay type: ADME, organism-based; parameters: dietary status Fasting, dose 650 mg, dosed compound id 2.46814e+06, dosed compound name Acetylsalicylic acid, regimen Single, route oral, sampling time 24 h, study doses 325/650 mg; conditions: plasma, po, 650 mg

Cmax [1]: 2590 ng/mL
AUC(0-t) [2]: 3520 ng·h/mL
AUC(0-inf) [3]: 3830 ng·h/mL
half-life [4]: 31 min
Tlag [5]: 2 min
Tmax [6]: 68 min
Cmax [7]: 5100 ng/mL
AUC(0-t) [8]: 6880 ng·h/mL
AUC(0-inf) [9]: 7280 ng·h/mL
half-life [10]: 55 min
Tlag [11]: 1 min
Tmax [12]: 40 min
SMILES: CC(=O)Oc1ccccc1C(=O)O [ASPIRIN]
